Where a name gives a salt, the structure may show the parent alone.
Target: T1, rh beta tryptase (Homo sapiens, UniProt Q15661)
T1 construct: purchased Promega
Test: tryptase inhibition test (cleavage of N-p-tosyl-Gly-Pro-Lys-para-nitroaniline, p-nitroaniline measured at 405 nm)
Format: biochemical
Conditions: Tris HCl buffer pH 7.4 with calcium and heparin; substrate 0.6 mM; 5 minutes' pre-incubation, 5 minutes incubation at 37° C.
Experimental: The compounds according to the invention are characterised by their tryptase-inhibiting activity. This ability to inhibit tryptase was investigated using the test described as follows. The measurement is carried out in Tris HCl buffer (100 mM), which additionally contains calcium (5 mM) and heparin ([…]), at pH 7.4. The standard used is rh beta tryptase which may be obtained commercially from Promega, for example. The substrate used is N-p-tosyl-Gly-Pro-Lys-para-nitroaniline in a concentration of 0.6 mM. The substrate is digested with tryptase to form p-nitroaniline which can be measured at 405 nm. Usually, an incubation period of 5 minutes and an incubation temperature of 37° C. are chosen. The enzyme activity used is 0.91 U/ml. The measurements are carried out in an Autoanalyser (Cobas Bio) made by Hofmann LaRoche. The potential inhibitory substances are used in concentrations of 10 μM in the screening, the inhibition of the tryptase being given in percent. The IC50 is determined at over 70% inhibition (concentration at which 50% of the enzyme activity is inhibited). After 5 minutes' pre-incubation of the potential inhibitory substances, the substrate is added to start the reaction, the formation of p-nitroaniline being taken as a measurement of the enzyme activity after 5 minutes, after testing the linearity.

T1 sequence (Q15661 31-275): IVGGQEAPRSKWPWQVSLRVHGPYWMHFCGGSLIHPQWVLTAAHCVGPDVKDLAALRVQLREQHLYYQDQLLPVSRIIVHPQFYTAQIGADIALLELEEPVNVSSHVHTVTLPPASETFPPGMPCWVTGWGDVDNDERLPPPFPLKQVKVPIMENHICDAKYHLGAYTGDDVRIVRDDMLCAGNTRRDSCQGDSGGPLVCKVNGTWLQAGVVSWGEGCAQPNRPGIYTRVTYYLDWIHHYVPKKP

Compound | IC50 [nM]
CN(C(=O)CCC1CCN(Cc2ccccc2)CC1)c1ccc2c(c1)nc(CCc1ccc(C(=N)N)cc1)n2C [Example 2, N-{2-[2-(4-Amidinophenyl)-ethyl]-1-methyl-benzimidazol-5-yl}-N-methyl-[3-(N-benzyl-piperid-4-yl)-propionamide]-dihydrochloride] | 190
Cn1c(CCc2ccc(C(=N)N)cc2)nc2cc(N(Cc3c4ccccc4cc4ccccc34)C(=O)CCC3CCN(Cc4ccccc4)CC3)ccc21 [Example 56, N-{2-[2-(4-Amidinophenyl)-ethyl]-1-methyl-benzimidazol-5-yl}-N-(anthracen-9-ylmethyl)-[3-(1-benzyl-piperidin-4-yl)-propionamide]-dihydro-chloride] | 90.6
CN(C)CCNCC(=O)N(Cc1cccc2ccccc12)c1ccc2c(c1)nc(CCc1ccc(C(=N)N)cc1)n2C [Example 76] | 22
N-{2-[2-(4-Amidinophenyl)-ethyl]-1- methyl-benzimidazol-5-yl}-N-( - naphthylmethylamino)-[2-(4- trifluoromethylbenzylamino)- acetamide]-dihydrochloride [Example 44] | 31
Cn1c(CCc2ccc(C(=N)N)cc2)nc2cc(N(Cc3cccc4ccccc34)C(=O)CN3CCC[C@H]3C(N)=O)ccc21 [Example 72] | 58.4
Cn1c(CCc2ccc(C(=N)N)cc2)nc2cc(N(Cc3cccc4ccccc34)C(=O)COCc3ccc([N+](=O)[O-])cc3)ccc21 [Example 75, N-{2-[2-(4-Amidinophenyl)-ethyl]-1-methyl-benzimidazol-5-yl}-N-(-- naphthylmethyl)-[2-(4-nitrobenzyloxy)-acetamide]-hydrochloride] | 17.2
CN(C)CCN(C)CC(=O)N(Cc1cccc2ccccc12)c1ccc2c(c1)nc(CCc1ccc(C(=N)N)cc1)n2C [Example 41, N-{2-[2-(4-Amidinophenyl)-ethyl]-1-methyl-benzimidazol-5-yl}-N-(α-naphthylmethyl)-[2-(N-(2-dimethylaminoethyl)-N-methylamino)-acetamide]-trihydrochloride] | 18
CCN(CC)c1ccc(CNCC(=O)N(Cc2cccc3ccccc23)c2ccc3c(c2)nc(CCc2ccc(C(=N)N)cc2)n3C)cc1 [Example 54, N-{2-[2-(4-Amidinophenyl)-ethyl]-1-methyl-benzimidazol-5-yl}-N-( - naphthylmethyl)-[2-(4-diethylaminobenzylamino)-acetamide]-dihydrochloride] | 8.6
CN(C)CCCCC(=O)N(Cc1ccccc1)c1ccc2c(c1)nc(CCc1ccc(C(=N)N)cc1)n2C [Example 26, N-{2-[2-(4-Amidinophenyl)-ethyl]-1-methyl-benzimidazol-5-yl}-N-benzyl-[5-dimethylamino-pentanoic acid amide]-dihydrochloride] | 53
Cn1c(CCc2ccc(C(=N)N)cc2)nc2cc(N(Cc3ccccc3)C(=O)CCCNC(=N)N)ccc21 [Example 39, N-{2-[2-(4-Amidinophenyl)-ethyl]-1-methyl-benzimidazol-5-yl}-N-benzyl-[4-guanidino-butanoic acid amide]-dihydrochloride] | 77
CN(CC(=O)N(Cc1cccc2ccccc12)c1ccc2c(c1)nc(CCc1ccc(C(=N)N)cc1)n2C)Cc1ccc(N2CCCC2)cc1 [Example 83, N-{2-[2-(4-Amidinophenyl)-ethyl]-1-methyl-benzimidazol-5-yl}-N-( - naphthylmethyl)-[2-(N-(4-pyrrolidin-1-ylbenzyl)-N-methylamino)-acetamide]-dihydrochloride] | 7.6
Cn1c(CCc2ccc(C(=N)N)cc2)nc2cc(N(Cc3cccc4ccccc34)C(=O)CNCc3ccc(C(=N)N)cc3)ccc21 [Example 22, N-{2-[2-(4-Amidinophenyl)-ethyl]-1-methyl-benzimidazol-5-yl}-N-( - naphthylmethyl)-[4-amidinobenzylamino-acetamide]-trihydrochloride] | 10
CCOC(=O)c1ccc(CNCC(=O)N(Cc2cccc3ccccc23)c2ccc3c(c2)nc(CCc2ccc(C(=N)N)cc2)n3C)cc1 [Example 65, N-{2-[2-(4-Amidinophenyl)-ethyl]-1-methyl-benzimidazol-5-yl}-N-( - naphthylmethyl)-[2-(4-ethylcarboxylatbenzylamino)-acetamide]-dihydrochloride] | 27
Cn1c(CCc2ccc(C(=N)N)cc2)nc2cc(N(Cc3ccccc3)C(=O)CCc3ccc(C(=N)N)cc3)ccc21 [Example 12, N-{2-[2-(4-Amidinophenyl)-ethyl]-1-methyl-benzimidazol-5-yl}-N-benzyl-[3-(4-amidinophenyl)-propionamide]-dihydrochloride] | 30
CN(C(=O)CCc1ccc(C(=N)N)cc1)c1ccc2c(c1)nc(CCc1ccc(C(=N)N)cc1)n2C [Example 1, N-{2-[2-(4-Amidinophenyl)-ethyl]-1-methyl-benzimidazol-5-yl}-N-methyl-[3-(4-amidinophenyl)-propionamide]dihydrochloride] | 64
CN(CC(=O)N(Cc1cccc2ccccc12)c1ccc2c(c1)nc(CCc1ccc(C(=N)N)cc1)n2C)Cc1cccc(C(=N)N)c1 [Example 18, N-{2-[2-(4-Amidinophenyl)-ethyl-1-methyl-benzimidazol-5-yl}-N-(- naphthylmethylamino)-N-methyl-N-[3-amidinobenzyl]-acetamide-trihydrochloride] | 12
N-{2-[2-(4-Amidinophenyl)-ethyl]-1- methyl-benzimidazol-5-yl}-N-( - naphthyl)-[4- dimethylaminobenzylamino- acetamide]-dihydrochloride [Example 21] | 11
N-{2-[2-(4-Amidinophenyl)-ethyl]-1- methyl-benzimidazol-5-yl}-N-( - naphthylmethyl)-[2-(1-pyridin-2-yl- piperazin-4-yl)-acetamide]-trihydro- chloride [Example 79] | 20.1

Next, values leading:

IC50 [nM] | Compound
39 | Cn1c(CCc2ccc(C(=N)N)cc2)nc2cc(N(Cc3cccc4ccccc34)C(=O)C=Cc3ccccn3)ccc21 [Example 67, N-{2-[2-(4-Amidinophenyl)-ethyl]-1-methyl-benzimidazol-5-yl}-N-( - naphthylmethyl)-[3-(pyridin-2-yl)-acrylamide]-hydrochloride]
33 | CN(C)CCCCC(=O)N(Cc1cccc2ccccc12)c1ccc2c(c1)nc(CCc1ccc(C(=N)N)cc1)n2C [Example 25, N-{2-[2-(4-Amidinophenyl)-ethyl]-1-methyl-benzimidazol-5-yl}-N-( - naphthylmethyl)-[5-dimethylamino-pentanoic acid amide]-dihydrochloride]
110 | Cn1c(CCc2ccc(C(=N)N)cc2)nc2cc(N(Cc3cccc4ccccc34)C(=O)CO)ccc21 [Example 77, N-{2-[2-(4-Amidinophenyl)-ethyl]-1-methyl-benzimidazol-5-yl}-N-(- naphthylmethyl)-[3-hydroxy-acetamide]-hydrochloride]
39 | Cn1c(CCc2ccc(C(=N)N)cc2)nc2cc(N(Cc3cccc4ccccc34)C(=O)CNCc3ccc(F)cc3)ccc21 [Example 61, N-{2-[2-(4-Amidinophenyl)-ethyl]-1-methyl-benzimidazol-5-yl}-N-( - naphthylmethyl)-[2-(4-fluorobenzylamino)-acetamide]-dihydrochloride]
38 | Cn1c(CCc2ccc(C(=N)N)cc2)nc2cc(N(Cc3cccc4ccccc34)C(=O)CCc3ccccn3)ccc21 [Example 68, N-{2-[2-(4-Amidinophenyl)-ethyl]-1-methyl-benzimidazol-5-yl}-N-( - naphthylmethyl)-[3-(pyridin-2-yl)-propionamide]-hydrochloride]
29 | Cn1c(CCc2ccc(C(=N)N)cc2)nc2cc(N(Cc3cccc4ccccc34)C(=O)CNCc3ccccc3)ccc21 [Example 62, N-{2-[2-(4-Amidinophenyl)-ethyl]-1-methyl-benzimidazol-5-yl}-N-( - naphthylmethyl)-[2-(N-benzylamino)-acetamide]-dihydrochloride]
10 | Cn1c(CCc2ccc(C(=N)N)cc2)nc2cc(N(Cc3cccc4ccccc34)C(=O)CNCc3cccc(N)c3)ccc21 [Example 28, N-{2-[2-(4-Amidinophenyl)-ethyl]-1-methyl-benzimidazol-5-yl}-N-( - naphthylmethy)-[3-aminobenzylamino-acetamide]-trihydrochloride]
66 | CN(C)CCOCC(=O)N(Cc1cccc2ccccc12)c1ccc2c(c1)nc(CCc1ccc(C(=N)N)cc1)n2C [Example 59, N-{2-[2-(4-Amidinophenyl)-ethyl]-1-methyl-benzimidazol-5-yl}-N-(α-naphthylmethyl)-[2-(2-dimethylaminoethoxy)-acetamide]-dihydrochloride]
30 | Cn1c(CCc2ccc(C(=N)N)cc2)nc2cc(N(Cc3cccc4ccccc34)C(=O)CCCCCN)ccc21 [Example 31, N-{2-[2-(4-Amidinophenyl)-ethyl]-1-methyl-benzimidazol-5-yl}-N-( - naphthylmethyl)-[6-amino-hexanoic acid amide]-dihydrochloride]
27 | Cn1c(CCc2ccc(C(=N)N)cc2)nc2cc(N(Cc3cccc4ccccc34)C(=O)CNCc3cccc(C(=N)N)c3)ccc21 [Example 46, N-{2-[2-(4-Amidinophenyl)-ethyl]-1-methyl-benzimidazol-5-yl}-N-( - naphthylmethyl)-[2-(3-amidinobenzylamino)-acetamide]-trihydrochloride]

Source: patent US6407130B1, “Carboxamide-substituted benzimidazoles having tryptase-inhibiting activity” (Boehringer Ingelheim Pharma KG, priority 1999, dated 2002)
